{"source": "patent US8999323B2", "about": "“Composition that can be cured by polymerisation for the production of biodegradable, biocompatible, cross-linkable polymers on the basis of polyvinyl alcohol” (Technische Universität Wien, priority 2007, dated 2015)", "type_in_all_cases": "cell-based", "key": {"[1]": {"tested_on": "osteoblast-like cells MC3T3-E1", "assay": "in vitro", "description": "(§1) In order to assess toxicity, osteoblast-like cells MC3T3-E1 (source: ATCC CRL-2596) were used. At first, the adherent cells were separated from each other and from the bottom of the petri dishes using pronase, and were then mixed with freshly prepared medium consisting of commercially available Minimal Essential Medium Eagle's alpha Modification (αMEM), supplemented with additional glucose from originally 1 g/l to a glucose concentration of 4.5 g/l as well as with 10% FCS (fetal calf serum), 30 μg/ml gentamycin (broad-spectrum antibiotic), L-glutamine (400 mg/l), and ascorbic acid (50 mg/l), so as to obtain a cell concentration of 40,000 cells/ml. 1 ml of this cell suspension was precharged into each well (diameter 1.9 cm) of multi-well plates.\n(§2) The multi-well containing the cells was incubated for 5 days at 37° C. under a humid atmosphere with 5% CO2 together with increasing amounts of the monomers used in the examples and comparative examples. Then the cells were washed with phosphate-buffered physiological saline and frozen before the measurements, in order to break up the cells. After thawing of the cells, the amount of deoxyribonucleic acid, which is proportional to the cell count, was determined by staining with a fluorescent dye, measuring the fluorescence at 460 nm (after excitation at 360 nm) and comparing the value to a calibration curve previously prepared."}, "in vitro": {"assay": "in vitro", "details": "mouse", "description": "as §1, §2"}, "[2]": {"tested_on": "human umbilical vein endothelial cells (HUVEC)", "assay": "Toxicity test of monomers with endothelial cells (EZ4U)", "description": "For an additional toxicity test of monomers of formula (I), human umbilical vein endothelial cells (HUVEC) were used. After trypsinating the confluent primary cultures, the cells were suspended in commercial Medium 199 with 20% fetal calf serum, put into 96-well cell culture plates in a concentration of 40,000 cells/cm^2, and cultivated until they were confluent again (37° C., 5% CO2). The cell supernatants were then lifted, and the endothelial cells were incubated for 24 hours with increasing monomer concentrations (0.1 nM to 1 mM in Medium 199 with 10% fetal calf serum). The influence on cell proliferation was examined by means of a non-radioactive cell proliferation and cytotoxicity test (EZ4U, Biomedica, Vienna). This test is based on the conversion by living cells of colorless tetrazolium salts into intensively colored formazan derivatives. The photochemically measured staining is proportional to the number of living cells in the sample. Thus, the influence of the test substances on the proliferation of the cells may be photometrically determined. Endothelial cells which had been cultivated without the addition of monomer solutions were used as a growth control."}, "[3]": {"details": "HUVEC, 24 hours, concentration of half-maximum proliferation inhibition"}, "[4]": {"details": "MC3T3-E1, 5 days incubation, DNA fluorescence, values are LC50 × 10^4"}}, "note": "Read-outs that look alike come from different tables or passages of the source."}
{"molecule": "hydrated ricinus oil tris(vinyl carbonate) [HRiTVC]", "values": [{"measurement": "CC50", "setting": "[1]", "value": "> 10000", "unit": "µM"}]}
{"molecule": "C=COC(=O)CCCCC", "note": "[HVE, hexanoic acid vinyl ester]", "values": [{"measurement": "CC50 at 5 days", "setting": "in vitro", "value": "> 10", "unit": "mM"}, {"measurement": "Cmax1/2", "setting": "[2]; [3]", "value": ">1000", "unit": "µmol/L"}]}
{"molecule": "C=COC(=O)OCCCCCCOC(=O)OC=C", "note": "[HDDVC, 1,6-hexanediol bis(vinyl carbonate)]", "values": [{"measurement": "CC50 at 5 days", "setting": "in vitro", "value": "> 10", "unit": "mM"}]}
{"molecule": "polyethylene glycol(400) bis(vinyl carbonate) [PEGDVC]", "values": [{"measurement": "CC50", "setting": "[1]", "value": "> 10000", "unit": "µM"}]}
{"molecule": "C=COC(=O)CCCCCCCCC", "note": "[DVE, decanoic acid vinyl ester]", "values": [{"measurement": "CC50 at 5 days", "setting": "in vitro", "value": "> 10", "unit": "mM"}, {"measurement": "Cmax1/2", "setting": "[2]; [3]", "value": ">1000", "unit": "µmol/L"}]}
{"molecule": "C=COC(=O)CC(C)C(C)C(CC(=O)OC=C)C(C)CC(=O)OC=C", "note": "(centres unmarked) [TFVE, trimeric fatty acid trivinyl ester]", "values": [{"measurement": "CC50 at 5 days", "setting": "in vitro", "value": "> 10", "unit": "mM"}]}
{"molecule": "C=COC(=O)NOC", "note": "[MVCA, N-methoxy vinyl carbamate]", "values": [{"measurement": "CC50", "setting": "in vitro; [4]", "value": "> 10", "unit": "mM"}]}
{"molecule": "C=CC(=O)OCCCCCCOC(=O)C=C", "note": "[HDDA, 1,6-hexanediol diacrylate, reference compound]", "values": [{"measurement": "CC50", "setting": "in vitro; [4]", "value": "< 0.01", "unit": "mM"}, {"measurement": "Cmax1/2", "setting": "[2]; [3]", "value": 20, "unit": "µmol/L"}]}
{"molecule": "C=COC(=O)OCCOC(=O)OC=C", "note": "[EGDVC, ethylene glycol bis(vinyl carbonate)]", "values": [{"measurement": "CC50 at 5 days", "setting": "in vitro", "value": "> 10", "unit": "mM"}]}
{"molecule": "C=COC(=O)ON(C)C(=O)OC=C", "note": "[MHADVC, N,O-Bis(vinyloxycarbonyl)-N-methyl hydroxylamine]", "values": [{"measurement": "CC50", "setting": "in vitro; [4]", "value": "> 10", "unit": "mM"}]}
{"molecule": "C=COC(=O)NCCCOCCOCCCNC(=O)OC=C", "note": "[JAVM, 3,3′-ethylenedioxy bis(propylamine)divinyl carbamate]", "values": [{"measurement": "CC50", "setting": "in vitro; [4]", "value": "> 10", "unit": "mM"}]}
{"molecule": "C=COC(=O)OCC(COC(=O)OC=C)OC(=O)OC=C", "note": "[GTVC, glycerine tris(vinyl carbonate)]", "values": [{"measurement": "CC50 at 5 days", "setting": "in vitro", "value": "> 10", "unit": "mM"}]}
{"molecule": "C=COC(=O)OCCC#N", "note": "[CEVC, 2-cyanoethyl vinyl carbonate]", "values": [{"measurement": "CC50 at 5 days", "setting": "in vitro", "value": "> 10", "unit": "mM"}]}
{"molecule": "C=COP(=O)(OCC)OCC", "note": "[DEVP, diethyl vinyl phosphate]", "values": [{"measurement": "CC50", "setting": "in vitro; [4]", "value": "> 10", "unit": "mM"}]}
{"molecule": "C=C(C)C(=O)OCCCCOC(=O)C(=C)C", "note": "[BDMA, 1,4-butanediol dimethacrylate, reference compound]", "values": [{"measurement": "CC50", "setting": "in vitro; [4]", "value": "< 0.01", "unit": "mM"}, {"measurement": "Cmax1/2", "setting": "[2]; [3]", "value": 40, "unit": "µmol/L"}]}
{"molecule": "C=COC(=O)[C@H](Cc1ccccc1)NC(C)=O", "note": "[PAVE, N-acetyl phenylalanine vinyl ester]", "values": [{"measurement": "CC50 at 5 days", "setting": "in vitro", "value": "> 10", "unit": "mM"}, {"measurement": "Cmax1/2", "setting": "[2]; [3]", "value": ">1000", "unit": "µmol/L"}]}
{"molecule": "C=COC(=O)N(C)CC(=O)OC", "note": "[SMEVCA, sarcosine methyl ester vinyl carbamate]", "values": [{"measurement": "CC50", "setting": "in vitro; [4]", "value": "> 10", "unit": "mM"}]}
{"molecule": "C=COC(=O)OCCOCCOC(=O)OC=C", "note": "[DEGDVC, diethylene glycol bis(vinyl carbonate)]", "values": [{"measurement": "CC50 at 5 days", "setting": "in vitro", "value": "> 10", "unit": "mM"}]}
{"molecule": "C=COC(=O)CCCCC(=O)OC=C", "note": "[AVE, adipic acid divinyl ester]", "values": [{"measurement": "Cmax1/2", "setting": "[2]; [3]", "value": ">1000", "unit": "µmol/L"}]}
{"molecule": "C=COC(=O)OCCCCOC(=O)OC=C", "note": "[BDDVC, 1,4-butanediol bis(vinyl carbonate)]", "values": [{"measurement": "CC50 at 5 days", "setting": "in vitro; osteoblast-like MC3T3-E1 cells (ATCC CRL-2596), MC3T3-E1, 5 days incubation, DNA fluorescence, values are LC50 × 10^4, read-out: In vitro LC50 × 10^4", "value": "> 10", "unit": "mM"}]}
{"molecule": "C=COC(=O)CCCCCCCCC(=O)OC=C", "note": "[SEVE, sebacic acid divinyl ester]", "values": [{"measurement": "CC50 at 5 days", "setting": "in vitro", "value": "> 10", "unit": "mM"}, {"measurement": "Cmax1/2", "setting": "[2]; [3]", "value": ">1000", "unit": "µmol/L"}]}
{"molecule": "C=COC(=O)N(OC)C(=O)C=C", "note": "[AMVCA, N-acryloyl N-methoxy vinyl carbamate]", "values": [{"measurement": "CC50", "setting": "in vitro; [4]", "value": "< 0.01", "unit": "mM"}, {"measurement": "toxicity for osteoblasts compared with the acrylates of the comparative examples", "setting": "[1]; statement on Table 2", "value": "similarly toxic as the majority of the comparative examples"}]}
{"molecule": "ethoxylated (20) TTA, MG 1200 [ETA, reference compound]", "values": [{"measurement": "CC50", "setting": "[1]", "value": 70, "unit": "µM"}, {"measurement": "Cmax1/2", "setting": "[2]; human", "value": 100, "unit": "µmol/L"}]}
{"molecule": "C=COP(=O)(OC=C)OCC", "note": "[DVEP, divinyl ethyl phosphate]", "values": [{"measurement": "CC50", "setting": "in vitro; [4]", "value": "> 10", "unit": "mM"}]}
{"molecule": "polyethylene glycol diacrylate, MG 800 [PEG-DA, reference compound]", "values": [{"measurement": "CC50", "setting": "[1]", "value": 110, "unit": "µM"}, {"measurement": "Cmax1/2", "setting": "[2]; human", "value": 500, "unit": "µmol/L"}]}
{"molecule": "C=COP(=O)(OC=C)OC=C", "note": "[TVP, trivinyl phosphate]", "values": [{"measurement": "CC50", "setting": "in vitro; [4]", "value": "> 10", "unit": "mM"}]}
{"molecule": "diethylene glycol bis[O—(O′- vinylmaleinoy1)-polylactate] [DVMPL]", "values": [{"measurement": "Cmax1/2", "setting": "[2]; [3]", "value": ">1000", "unit": "µmol/L"}]}
{"molecule": "C=COC(=O)OCC", "note": "[EVC, ethylvinyl carbonate]", "values": [{"measurement": "CC50 at 5 days", "setting": "in vitro", "value": "> 10", "unit": "mM"}]}
{"molecule": "C=COC(=O)COCCOCCOCC(=O)OC=C", "note": "[TUVE, ω,ω′-3,6,9-trioxaundecanedioic acid divinyl ester]", "values": [{"measurement": "CC50 at 5 days", "setting": "in vitro", "value": "> 10", "unit": "mM"}]}
{"molecule": "C=COC(=O)CCCCCCC(=O)OC=C", "note": "[KVE, octanedioic acid divinyl ester]", "values": [{"measurement": "CC50 at 5 days", "setting": "in vitro", "value": "> 10", "unit": "mM"}, {"measurement": "Cmax1/2", "setting": "[2]; [3]", "value": ">1000", "unit": "µmol/L"}]}
{"molecule": "C=COC(=O)NCCOP(=O)(OCC)OCCNC(=O)OC=C", "note": "[EBVCAEP, ethyl bis[2-(vinyloxycarbonylamino)ethyl]phosphate]", "values": [{"measurement": "CC50", "setting": "in vitro; [4]", "value": "> 10", "unit": "mM"}]}
{"molecule": "C=CC(=O)OCC(CC)(COC(=O)C=C)COC(=O)C=C", "note": "[TTA, trimethylolpropane triacrylate, reference compound]", "values": [{"measurement": "CC50", "setting": "in vitro; [4]", "value": "< 0.01", "unit": "mM"}, {"measurement": "Cmax1/2", "setting": "[2]; human, 24 h", "value": 10, "unit": "µmol/L"}]}
{"molecule": "C=COC(=O)N(C)CCN(C)C(=O)OC=C", "note": "[N,N′-dimethyl ethylenediamine bis(vinyl carbamate)]", "values": [{"measurement": "CC50", "setting": "in vitro; [4]", "value": "> 10", "unit": "mM"}]}
